Where two headings read alike, the source gives them in different places.
Legend:
Type in all cases: cell-based
[1] = test system: E. coli BL21 cells; assay: Inhibition of E. coli growth in liquid culture (OD 600 nm); details: concentrations tested in FIG. 11
Description: Compounds to be tested were dissolved in ethanol or DMSO and subsequently diluted into of Luria broth. The final concentration of ethanol (2%, v/v) or DMSO (1%, v/v) had minimal effect on growth rate. Culture tubes were subsequently inoculated with E. coli BL21 or D22 cells to an optical density (at 600 nm) of 0.01 and incubated on a rotary shaker at 37° C. The optical density at 600 nm of 100 μl samples was measured at indicated time points.

[2] = test system: E. faecalis ATCC 29212; assay: Broth microdilution MIC, ATCC strains; details: Enterococcus faecalis, read-out: MIC (growth inhibition, microdilution method)
Outline: (§1)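 Tested per NCCLS M7-A6 broth microdilution with an inoculum of 5×10^5 CFU/ml and DMSO controls matching solvent levels. Panels were incubated 16 to 20 hours at 35° C. in ambient air, and the MIC was taken as the lowest concentration inhibiting visible growth.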

[3] = test system: E. faecium ATCC 35667; assay: Broth microdilution MIC, ATCC strains; details: Enterococcus faecium, ATCC35667, read-out: MIC (growth inhibition, microdilution method)
Outline: as §1

[4] = test system: MRSA ATCC 33591; assay: Broth microdilution MIC, ATCC strains; details: Staphylococcus aureus; MRSA ATCC 33591; read-out: MIC (growth inhibition, microdilution method)
Outline: as §1

[5] = test system: P. vulgaris ATCC 49132; assay: Broth microdilution MIC, ATCC strains; details: Proteus vulgaris, ATCC49132; P. vulgaris ATCC 49132; read-out: MIC (growth inhibition, microdilution method)
Outline: as §1

[6] = test system: Pr. stuartii ATCC 33672; assay: Broth microdilution MIC, ATCC strains; details: Providencia stuartii, ATCC33672; Pr. stuartii ATCC 33672; read-out: MIC (growth inhibition, microdilution method)
Outline: as §1

[7] = test system: S. epidermidis ATCC 14990; assay: Broth microdilution MIC, ATCC strains; details: Staphylococcus epidermidis, ATCC14990; S. epidermidis ATCC 14990; read-out: MIC (growth inhibition, microdilution method)
Outline: as §1

[8] = test system: S. maltophilia ATCC 13637; assay: Broth microdilution MIC, ATCC strains; details: Stenotrophomonas maltophilia, ATCC13637; S. maltophilia ATCC 13637; read-out: MIC (growth inhibition, microdilution method)
Outline: as §1

[9] = test system: S. marcescens ATCC 8100; assay: Broth microdilution MIC, ATCC strains; details: Serratia marcescens, ATCC8100; S. marcescens ATCC 8100; read-out: MIC (growth inhibition, microdilution method)
Outline: as §1

[10] = test system: S. simulans ATCC 27848; assay: Broth microdilution MIC, ATCC strains; details: Staphylococcus simulans, ATCC27848, read-out: MIC (growth inhibition, microdilution method)
Outline: as §1

[11] = test system: S. warneri ATCC 27836; assay: Broth microdilution MIC, ATCC strains; details: Staphylococcus warneri, ATCC27836; S. warneri ATCC 27836; read-out: MIC (growth inhibition, microdilution method)
Outline: as §1

[12] = test system: Ps. aeruginosa clinical isolates; assay: Broth microdilution MIC, clinical isolate strains (NAUTICA); details: Table 4B; each table row is one clinical isolate; unit assumed
Outline: as §1

Question: For `O=C(O)c1sc(-c2ccc(F)cc2)cc1-c1nnn[nH]1` [DNM-141, 5-(4-Fluoro-phenyl)-3-(1H-tetrazol-5-yl)-thiophene-2-carboxylic acid], which “growth inhibitory effect, E. coli liquid culture” value [1] is on record?
Answer: The value was “no apparent effect”.

Question: And the MIC ([2]; ATCC29212, E. faecalis ATCC 29212)?
Answer: Its MIC is > 16 µg/mL.

Question: What about the MIC ([2]; ATCC29212, E. faecalis, ATCC number not given) of the same compound?
Answer: The MIC was > 16 µg/mL.

Question: What about the MIC [3] of the same compound?
Answer: Its MIC is > 16 µg/mL.

Question: And the MIC [4]?
Answer: Its MIC is > 16 µg/mL.

Question: And the MIC [5]?
Answer: The MIC was > 16 µg/mL.

Question: And the MIC [6]?
Answer: Its MIC is > 16 µg/mL.

Question: What about the MIC [7] of the same compound?
Answer: Its MIC is > 16 µg/mL.

Question: And the MIC [8]?
Answer: The MIC was > 16 µg/mL.

Question: And the MIC [9]?
Answer: Its MIC is > 16 µg/mL.

Question: What about the MIC [10] of the same compound?
Answer: Its MIC is > 16 µg/mL.

Question: What about the MIC [11] of the same compound?
Answer: Its MIC is > 16 µg/mL.

Question: What about the MIC, PS. AER [12] of the same compound?
Answer: Its MIC, PS. AER is > 16 µg/mL.
